Assay results as given in patent US20110039763A1, “TARGETED ANTIMICROBIAL MOIETIES” (C3 JIAN, INC., priority 2009, published 2011).
“Also recorded” adds a separate entry of the source. Square brackets hold non-standard residues; d marks the D form. Ends that are not written are not given here. dOrn = NCCC[C@@H](N)C(=O)O; Orn = NCCC[C@H](N)C(=O)O

How the values were obtained:
microorganisms [1] = assay: Targeting peptide binding to target microorganisms (Tables 3, 10, 12); details: microorganism(s) the targeting peptide binds, preferably 1x PBS
microorganisms [2] = assay: Morphology, biofilm and growth disrupting peptides (Table 5); format: cell-based; parameters: key: A: Peptide aggregates; B: Less hyphal formation; Clumps; Diffuse clumps and small polyps; F: Diffuse growth; H: Thin; I: Growth inhibition; Microcolony formation; Rippled; Small polyps; Thick; W: Halo formation on top, microlonies on bottom
Source text: In certain embodiments peptides that induce alterations in phenotype or other biological activities can also be used as antimicrobial effector moieties.

[3] = binding in aqueous buffers varied with peptide solubility
[4] = binding in aqueous buffers that varied with peptide solubility

| Substance | Target(s) (microorganisms [1]; [3]) | Organism, effect (microorganisms [2]; S. pneumoniae) | further results |
| --- | --- | --- | --- |
| PF-643 (chain 1 VRCRL; chain 2 VRCRL; Peptide with targeting and/or antimicrobial activity) | Mycobacteria spp | S. pneumoniae (R) | Organism, effect (microorganisms [2]; E. faecalis): E. faecalis (R); Organism, effect (microorganisms [2]; MRSA): MRSA (C) |
| PF-644 (chain 1 TSGLIIGENGLNGL; chain 2 TSGLIIGENGLNGL; Peptide with targeting and/or antimicrobial activity) | Mycobacteria spp | S. pneumoniae (H) |  |
| PF-645 (chain 1 SNSVQQG; chain 2 SNSVQQG; Peptide with targeting and/or antimicrobial activity) | Mycobacteria spp | S. pneumoniae (I) | Organism, effect (microorganisms [2]; C. albicans): C. albicans (B) |
| PF-646 (chain 1 APASPGRRPG; chain 2 APASPGRRPG; Peptide with targeting and/or antimicrobial activity) | Mycobacteria spp | S. pneumoniae (H) | Organism, effect (microorganisms [2]; C. albicans): C. albicans (B) |
| PF-647 (chain 1 GTFLGQKCAAATAS; chain 2 GTFLGQKCAAATAS; Peptide with targeting and/or antimicrobial activity) | Mycobacteria spp | S. pneumoniae (R) | Organism, effect (microorganisms [2]; C. albicans): C. albicans (B) |
| PF-649 (chain 1 CPRYPFVDVGPAGPWRARWRVGS; chain 2 CPRYPFVDVGPAGPWRARWRVGS; Peptide with targeting and/or antimicrobial activity) | Mycobacteria spp |  | Organism, effect (microorganisms [2]; E. faecalis): E. faecalis (R) |
| PF-651 (chain 1 PRWPTGAGRHR; chain 2 PRWPTGAGRHR; Peptide with targeting and/or antimicrobial activity) | Mycobacteria spp | S. pneumoniae (H) |  |
| PF-652 (chain 1 FLAPARPDLQAQRQALAQ; chain 2 FLAPARPDLQAQRQALAQ; Peptide with targeting and/or antimicrobial activity) | Mycobacteria spp | S. pneumoniae (A) |  |
| PF-653 (chain 1 QSVHPLPAETPVADVI; chain 2 QSVHPLPAETPVADVI; Peptide with targeting and/or antimicrobial activity) | Mycobacteria spp | S. pneumoniae (H) |  |
| PF-654 (chain 1 LSGRLAGRR; chain 2 LSGRLAGRR; Peptide with targeting and/or antimicrobial activity) | Mycobacteria spp | S. pneumoniae (A) | Organism, effect (microorganisms [2]; C. albicans): C. albicans (B); Organism, effect (microorganisms [2]; MRSA): MRSA (R) |
| PF-656 (chain 1 RGMFVPFHDVDCVQ; chain 2 RGMFVPFHDVDCVQ; Peptide with targeting and/or antimicrobial activity) | Mycobacteria spp |  | Organism, effect (microorganisms [2]; MRSA): MRSA (R) |
| PF-657 (chain 1 YVANYTITQFGRDFDDRLAVAIHFA; chain 2 YVANYTITQFGRDFDDRLAVAIHFA; Peptide with targeting and/or antimicrobial activity) | Mycobacteria spp | S. pneumoniae (H) | Organism, effect (microorganisms [2]; C. jeikeium): C. jeikeium (D); Organism, effect (microorganisms [2]; E. faecalis): E. faecalis (D); Organism, effect (microorganisms [2]; MRSA): MRSA (D); Organism, effect (microorganisms [2]; S. epidermidis): S. epidermidis (C) |
| PF-658 (chain 1 PTTPPPTTPPEIPTGGTVIST; chain 2 PTTPPPTTPPEIPTGGTVIST; Peptide with targeting and/or antimicrobial activity) | Mycobacteria spp | S. pneumoniae (H) | Organism, effect (microorganisms [2]; MRSA): MRSA (R) |
| PF-659 (chain 1 TVIST; chain 2 TVIST; Peptide with targeting and/or antimicrobial activity) | Mycobacteria spp | S. pneumoniae (C) | Organism, effect (microorganisms [2]; B. subtilis): B. subtilis (H); Organism, effect (microorganisms [2]; MRSA): MRSA (R); Organism, effect (microorganisms [2]; S. epidermidis): S. epidermidis (M) |
| PF-660 (chain 1 TDPQATAAPRRRTSPR; chain 2 TDPQATAAPRRRTSPR; Peptide with targeting and/or antimicrobial activity) | Mycobacteria spp | S. pneumoniae (H) |  |
| PF-661 (chain 1 PDEDIRRRAILPPAGPCRPMSPE; chain 2 PDEDIRRRAILPPAGPCRPMSPE; Peptide with targeting and/or antimicrobial activity) | Mycobacteria spp |  | Organism, effect (microorganisms [2]; MRSA): MRSA (R) |
| PF-662 (chain 1 GKQSRAHGPVASRREFRRKSG; chain 2 GKQSRAHGPVASRREFRRKSG; Peptide with targeting and/or antimicrobial activity) | Mycobacteria spp | S. pneumoniae (A) |  |
| PF-663 (chain 1 ATLIPRKA; chain 2 ATLIPRKA; Peptide with targeting and/or antimicrobial activity) | Mycobacteria spp | S. pneumoniae (A) |  |
| PF-665 (chain 1 VLRVATAVGEVPTGL; chain 2 VLRVATAVGEVPTGL; Peptide with targeting and/or antimicrobial activity) | Mycobacteria spp | S. pneumoniae (H) |  |
| PF-666 (chain 1 PNRRSRPR; chain 2 PNRRSRPR; Peptide with targeting and/or antimicrobial activity) | Mycobacteria spp | S. pneumoniae (A) |  |
| PF-S029 (TSDTQSQSPWLFDNADIVNIYPVQLMHSSDND; Peptide with targeting and/or antimicrobial activity) | M. luteus; also recorded: P. mirabilis; also recorded: E. coli; also recorded: C. albicans; also recorded: C. jeikeium; also recorded: C. jejuni |  |  |
| Py Pf 12 ([dS]KG[Orn][dS]SGK[dOrn]ES; not fully specified (bridges)) |  |  | Target(s) (microorganisms [1]; [4]): P. fluorescens |
| TT-305 (ARNALNMRDVPVDAAIIGIIDGMDEE; Peptide with targeting and/or antimicrobial activity) |  |  | Target(s) (microorganisms [1]; [4]): F. nucleatum |
| TT-306 (KILNEAEGKLLKVIEKNGEIDIEEI; Peptide with targeting and/or antimicrobial activity) |  |  | Target(s) (microorganisms [1]; [4]): F. nucleatum |
| TT-307 (NGDKKAKEELDKWDEVIKELNIQF; Peptide with targeting and/or antimicrobial activity) |  |  | Target(s) (microorganisms [1]; [4]): F. nucleatum |
| TT-308 (GLVIIPNLIALIILFSQVRQQTKDYFSNPKLSSR; Peptide with targeting and/or antimicrobial activity) |  |  | Target(s) (microorganisms [1]; [4]): F. nucleatum |
| TT-309 (EPLPLTKYDKKDTEMKKVFKEILAGKVGYEKEEE; Peptide with targeting and/or antimicrobial activity) |  |  | Target(s) (microorganisms [1]; [4]): F. nucleatum |
| TT-310 (TKLKKNNKLLSAKKENTLHTKDK; Peptide with targeting and/or antimicrobial activity) |  |  | Target(s) (microorganisms [1]; [4]): F. nucleatum |
| TT-311 (AIFDAMHNL; Peptide with targeting and/or antimicrobial activity) |  |  | Target(s) (microorganisms [1]; [4]): S. mutans; also recorded: S. sobrinus |
